Measurements published in article PMC7224190, “Pharmacological inhibition of PRMT7 links arginine monomethylation to the cellular stress response” (Nature Communications, 2020).

Columns and labels:
Assay in all cases: biochemical
Set-up in all cases: radiometric methyltransferase selectivity assay with tritiated SAM, per cent activity
Details in all cases: read-out: % of control remaining
SETD2 = SETD2 (Homo sapiens, UniProt Q9BYW2)
Summary of the method: (§1)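 Radiometric methyltransferase assays with ³H-SAM and substrate near apparent Km, compound tested at 1 and 10 μM. Methyl incorporation into biotinylated substrate read by scintillation proximity after guanidine quench; no-compound = 100%, no-enzyme = 0% activity.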

PRMT4 = biological target: T1, PRMT4 (Homo sapiens, UniProt Q86X55)
T1 construct: gene CARM1
T1 sequence (Q86X55 1-608): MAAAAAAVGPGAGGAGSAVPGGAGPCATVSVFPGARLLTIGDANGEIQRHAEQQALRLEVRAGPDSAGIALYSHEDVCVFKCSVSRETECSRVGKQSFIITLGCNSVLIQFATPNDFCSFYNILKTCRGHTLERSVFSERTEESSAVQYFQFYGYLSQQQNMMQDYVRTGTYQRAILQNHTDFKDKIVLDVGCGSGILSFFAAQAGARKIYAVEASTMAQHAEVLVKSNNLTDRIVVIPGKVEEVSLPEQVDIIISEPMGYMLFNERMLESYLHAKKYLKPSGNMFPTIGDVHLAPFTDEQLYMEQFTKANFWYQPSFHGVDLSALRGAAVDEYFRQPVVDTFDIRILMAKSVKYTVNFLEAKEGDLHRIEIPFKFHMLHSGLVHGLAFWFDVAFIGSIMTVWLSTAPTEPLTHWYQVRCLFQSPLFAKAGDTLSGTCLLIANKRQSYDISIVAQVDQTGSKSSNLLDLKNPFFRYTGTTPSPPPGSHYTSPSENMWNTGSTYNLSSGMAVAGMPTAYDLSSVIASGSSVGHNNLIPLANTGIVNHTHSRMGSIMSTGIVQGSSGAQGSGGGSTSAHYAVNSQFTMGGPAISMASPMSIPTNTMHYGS
Summary of the method: as §1

SETD8 = biological target: T2, SETD8 (Homo sapiens, UniProt Q9NQR1)
T2 construct: gene KMT5A
T2 sequence (Q9NQR1 1-393): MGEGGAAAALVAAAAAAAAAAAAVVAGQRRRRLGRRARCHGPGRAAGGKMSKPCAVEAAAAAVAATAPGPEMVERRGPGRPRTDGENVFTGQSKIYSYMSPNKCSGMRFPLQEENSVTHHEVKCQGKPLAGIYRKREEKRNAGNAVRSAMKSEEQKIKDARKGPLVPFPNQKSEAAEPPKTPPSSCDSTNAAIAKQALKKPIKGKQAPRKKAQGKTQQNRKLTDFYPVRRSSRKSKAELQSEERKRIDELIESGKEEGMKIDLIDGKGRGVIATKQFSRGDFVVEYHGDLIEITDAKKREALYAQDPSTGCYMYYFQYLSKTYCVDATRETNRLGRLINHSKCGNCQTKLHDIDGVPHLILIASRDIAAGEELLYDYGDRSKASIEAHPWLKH
Summary of the method: as §1

SMYD3 = biological target: T3, SMYD3 (Homo sapiens, UniProt Q9H7B4)
T3 sequence (Q9H7B4 1-428): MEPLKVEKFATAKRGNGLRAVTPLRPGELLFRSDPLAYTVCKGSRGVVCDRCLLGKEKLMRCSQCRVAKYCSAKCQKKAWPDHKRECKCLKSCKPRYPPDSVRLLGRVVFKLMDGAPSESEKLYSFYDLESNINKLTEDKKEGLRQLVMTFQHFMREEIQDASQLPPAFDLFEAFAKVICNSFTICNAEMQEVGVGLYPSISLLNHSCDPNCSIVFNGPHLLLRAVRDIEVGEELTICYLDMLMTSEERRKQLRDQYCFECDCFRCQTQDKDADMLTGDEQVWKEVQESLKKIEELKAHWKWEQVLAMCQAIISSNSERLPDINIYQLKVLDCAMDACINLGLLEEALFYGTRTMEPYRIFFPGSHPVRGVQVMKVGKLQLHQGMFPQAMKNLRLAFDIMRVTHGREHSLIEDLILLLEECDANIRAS
Summary of the method: as §1

SMYD2 = SMYD2 (Homo sapiens, UniProt Q9NRG4)
Summary of the method: as §1

MLL1 = biological target: T4, MLL1 (Homo sapiens, UniProt Q03164)
T4 construct: gene KMT2A
Summary of the method: as §1

T4 sequence (Q03164 whole entry): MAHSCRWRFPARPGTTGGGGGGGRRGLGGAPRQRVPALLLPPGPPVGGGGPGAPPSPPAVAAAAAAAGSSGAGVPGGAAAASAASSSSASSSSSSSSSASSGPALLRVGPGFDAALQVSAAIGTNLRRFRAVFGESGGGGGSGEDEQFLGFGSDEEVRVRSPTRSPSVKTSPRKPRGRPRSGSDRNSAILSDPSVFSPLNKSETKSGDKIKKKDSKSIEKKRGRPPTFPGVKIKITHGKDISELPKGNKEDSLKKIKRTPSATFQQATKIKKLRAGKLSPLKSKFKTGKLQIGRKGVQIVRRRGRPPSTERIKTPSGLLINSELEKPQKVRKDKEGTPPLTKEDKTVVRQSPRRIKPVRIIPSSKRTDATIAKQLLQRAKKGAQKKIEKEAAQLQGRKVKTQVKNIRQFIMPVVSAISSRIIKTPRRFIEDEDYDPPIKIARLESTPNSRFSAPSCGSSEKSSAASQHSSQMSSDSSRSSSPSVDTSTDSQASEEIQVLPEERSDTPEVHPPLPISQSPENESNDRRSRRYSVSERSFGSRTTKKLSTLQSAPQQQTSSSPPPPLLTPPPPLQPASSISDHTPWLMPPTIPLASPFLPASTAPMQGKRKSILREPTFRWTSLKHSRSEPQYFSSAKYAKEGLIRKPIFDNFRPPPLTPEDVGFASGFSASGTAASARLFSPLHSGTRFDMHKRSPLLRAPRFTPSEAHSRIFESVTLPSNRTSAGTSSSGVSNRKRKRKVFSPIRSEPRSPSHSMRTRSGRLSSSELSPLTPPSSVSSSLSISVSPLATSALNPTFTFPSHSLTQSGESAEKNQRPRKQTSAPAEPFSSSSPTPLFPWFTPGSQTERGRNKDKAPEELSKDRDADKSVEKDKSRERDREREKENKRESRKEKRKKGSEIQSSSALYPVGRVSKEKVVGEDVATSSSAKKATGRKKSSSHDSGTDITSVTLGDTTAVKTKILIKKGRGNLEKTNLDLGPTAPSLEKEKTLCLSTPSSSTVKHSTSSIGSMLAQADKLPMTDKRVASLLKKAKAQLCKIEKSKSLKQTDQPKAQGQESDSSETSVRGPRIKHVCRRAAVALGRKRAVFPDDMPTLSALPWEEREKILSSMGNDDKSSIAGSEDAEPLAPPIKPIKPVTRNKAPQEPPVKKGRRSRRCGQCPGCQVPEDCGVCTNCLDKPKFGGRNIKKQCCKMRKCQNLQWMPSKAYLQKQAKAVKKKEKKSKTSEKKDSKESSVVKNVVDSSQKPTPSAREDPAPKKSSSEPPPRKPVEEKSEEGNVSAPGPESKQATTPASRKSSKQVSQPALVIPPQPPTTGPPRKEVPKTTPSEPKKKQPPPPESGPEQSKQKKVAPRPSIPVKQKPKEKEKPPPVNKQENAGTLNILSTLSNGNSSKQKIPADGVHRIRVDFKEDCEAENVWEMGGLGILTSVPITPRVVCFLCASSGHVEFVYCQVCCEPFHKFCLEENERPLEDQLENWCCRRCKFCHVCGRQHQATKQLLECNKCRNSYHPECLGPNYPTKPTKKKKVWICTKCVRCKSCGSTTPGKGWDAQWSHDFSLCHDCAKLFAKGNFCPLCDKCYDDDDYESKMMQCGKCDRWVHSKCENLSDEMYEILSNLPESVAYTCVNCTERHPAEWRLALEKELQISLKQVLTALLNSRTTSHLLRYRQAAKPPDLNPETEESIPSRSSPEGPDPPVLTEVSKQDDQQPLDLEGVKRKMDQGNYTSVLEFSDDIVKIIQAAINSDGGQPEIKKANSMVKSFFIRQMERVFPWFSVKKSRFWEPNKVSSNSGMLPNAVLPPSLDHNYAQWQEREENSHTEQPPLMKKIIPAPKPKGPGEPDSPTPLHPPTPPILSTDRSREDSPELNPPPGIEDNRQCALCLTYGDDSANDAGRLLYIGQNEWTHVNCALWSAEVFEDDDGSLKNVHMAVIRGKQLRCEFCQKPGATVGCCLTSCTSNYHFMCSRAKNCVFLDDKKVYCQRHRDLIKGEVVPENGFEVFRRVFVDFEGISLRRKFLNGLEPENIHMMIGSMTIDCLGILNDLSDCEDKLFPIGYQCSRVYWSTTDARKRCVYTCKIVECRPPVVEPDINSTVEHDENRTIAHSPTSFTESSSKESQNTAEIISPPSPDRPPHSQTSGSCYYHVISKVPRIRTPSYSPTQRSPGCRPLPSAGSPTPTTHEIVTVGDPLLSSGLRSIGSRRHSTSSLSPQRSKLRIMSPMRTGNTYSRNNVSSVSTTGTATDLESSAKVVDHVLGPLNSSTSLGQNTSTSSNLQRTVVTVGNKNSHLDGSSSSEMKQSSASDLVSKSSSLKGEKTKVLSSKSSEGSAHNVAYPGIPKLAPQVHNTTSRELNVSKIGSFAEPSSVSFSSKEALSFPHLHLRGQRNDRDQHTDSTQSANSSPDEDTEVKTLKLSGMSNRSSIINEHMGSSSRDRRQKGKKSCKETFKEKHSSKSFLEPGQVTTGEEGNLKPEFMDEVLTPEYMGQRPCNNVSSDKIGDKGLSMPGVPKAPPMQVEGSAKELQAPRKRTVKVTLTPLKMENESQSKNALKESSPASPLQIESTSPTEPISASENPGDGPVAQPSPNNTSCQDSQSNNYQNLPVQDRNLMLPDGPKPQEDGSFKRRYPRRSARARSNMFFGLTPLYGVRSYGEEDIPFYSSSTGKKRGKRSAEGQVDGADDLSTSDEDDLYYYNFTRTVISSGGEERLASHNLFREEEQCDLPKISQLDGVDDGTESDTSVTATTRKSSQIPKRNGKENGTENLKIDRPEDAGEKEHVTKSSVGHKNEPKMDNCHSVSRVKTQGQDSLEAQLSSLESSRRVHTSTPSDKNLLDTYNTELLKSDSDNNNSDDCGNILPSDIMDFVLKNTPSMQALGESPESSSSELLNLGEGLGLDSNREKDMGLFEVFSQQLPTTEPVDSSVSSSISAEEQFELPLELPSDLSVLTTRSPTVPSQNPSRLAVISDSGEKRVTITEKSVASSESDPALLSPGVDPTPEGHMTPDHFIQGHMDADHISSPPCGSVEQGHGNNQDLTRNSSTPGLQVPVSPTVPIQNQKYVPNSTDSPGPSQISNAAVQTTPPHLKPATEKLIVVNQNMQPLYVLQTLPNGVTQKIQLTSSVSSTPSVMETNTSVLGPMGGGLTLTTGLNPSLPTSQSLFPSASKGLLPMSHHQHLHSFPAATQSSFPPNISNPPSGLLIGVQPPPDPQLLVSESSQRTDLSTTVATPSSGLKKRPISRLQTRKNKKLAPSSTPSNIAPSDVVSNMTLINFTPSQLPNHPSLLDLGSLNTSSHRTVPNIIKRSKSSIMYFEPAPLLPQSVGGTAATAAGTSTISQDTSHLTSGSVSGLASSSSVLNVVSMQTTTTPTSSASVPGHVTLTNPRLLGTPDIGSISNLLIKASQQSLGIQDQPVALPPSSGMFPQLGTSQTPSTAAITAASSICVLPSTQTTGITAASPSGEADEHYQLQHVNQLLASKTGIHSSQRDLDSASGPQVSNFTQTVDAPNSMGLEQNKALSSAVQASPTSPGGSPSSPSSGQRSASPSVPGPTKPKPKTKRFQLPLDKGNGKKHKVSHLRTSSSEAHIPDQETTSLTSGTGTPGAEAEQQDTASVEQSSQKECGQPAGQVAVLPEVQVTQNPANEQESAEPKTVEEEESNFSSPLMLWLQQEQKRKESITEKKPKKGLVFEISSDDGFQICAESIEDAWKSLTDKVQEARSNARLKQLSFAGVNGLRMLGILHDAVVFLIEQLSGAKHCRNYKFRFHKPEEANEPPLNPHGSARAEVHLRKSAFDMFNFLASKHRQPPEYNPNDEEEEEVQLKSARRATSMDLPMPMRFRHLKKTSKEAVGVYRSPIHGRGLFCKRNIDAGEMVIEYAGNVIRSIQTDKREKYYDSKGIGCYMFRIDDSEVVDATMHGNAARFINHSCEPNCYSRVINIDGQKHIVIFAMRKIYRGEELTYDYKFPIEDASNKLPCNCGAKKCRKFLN
Chain of SMYD2 (Q9NRG4 whole entry): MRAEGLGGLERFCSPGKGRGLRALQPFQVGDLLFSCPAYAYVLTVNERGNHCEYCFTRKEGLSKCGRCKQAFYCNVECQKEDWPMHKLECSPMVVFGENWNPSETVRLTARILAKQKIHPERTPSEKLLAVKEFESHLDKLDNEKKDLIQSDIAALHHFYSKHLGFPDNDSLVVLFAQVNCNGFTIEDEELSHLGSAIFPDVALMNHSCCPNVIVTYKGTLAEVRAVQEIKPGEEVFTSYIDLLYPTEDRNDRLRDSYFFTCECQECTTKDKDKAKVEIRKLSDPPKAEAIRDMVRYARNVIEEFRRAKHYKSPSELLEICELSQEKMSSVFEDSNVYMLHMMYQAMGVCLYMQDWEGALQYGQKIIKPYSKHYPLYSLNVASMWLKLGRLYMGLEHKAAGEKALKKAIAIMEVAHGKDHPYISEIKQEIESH

Compound | remaining activity at 1 µM (SETD2) | remaining activity at 10 µM (SETD2) | remaining activity at 1 µM (PRMT4) | remaining activity at 10 µM (PRMT4) | remaining activity at 1 µM (SETD8) | remaining activity at 10 µM (SETD8) | remaining activity at 1 µM (SMYD3) | remaining activity at 10 µM (SMYD3) | remaining activity at 1 µM (SMYD2) | remaining activity at 10 µM (SMYD2) | remaining activity at 1 µM (MLL1) | remaining activity at 10 µM (MLL1)
CC1(C)O[C@@H]2[C@H](O1)[C@@H](CSCCCCNCc1cccc(-c3ccc(Cl)cc3)c1)O[C@H]2n1cnc2c(N)ncnc21 [SGC8158N] | 103% | 97% | 101% | 100% | 99% | 100% | 100% | 102% | 105% | 104% | 101% | 98%
Nc1ncnc2c1ncn2[C@@H]1O[C@H](CSCCCCNCc2cccc(-c3ccc(Cl)cc3)c2)[C@@H](O)[C@H]1O [SGC8158] | 95% | 86% | 7% | 0% | 101% | 102% | 102% | 104% | 101% | 84% | 106% | 99%
